{
  "source": "patent US8436023B2",
  "about": "“Cyclohexyl-azetidinyl antagonists of CCR2” (Janssen Pharmaceutica N.V., priority 2010, dated 2013)",
  "molecular_target": "T1, CCR2 (Homo sapiens, UniProt P41597)",
  "T1 construct": "host or cells: THP-1 human monocytic cells",
  "T1 sequence (P41597 1-360 isoform P41597-2)": "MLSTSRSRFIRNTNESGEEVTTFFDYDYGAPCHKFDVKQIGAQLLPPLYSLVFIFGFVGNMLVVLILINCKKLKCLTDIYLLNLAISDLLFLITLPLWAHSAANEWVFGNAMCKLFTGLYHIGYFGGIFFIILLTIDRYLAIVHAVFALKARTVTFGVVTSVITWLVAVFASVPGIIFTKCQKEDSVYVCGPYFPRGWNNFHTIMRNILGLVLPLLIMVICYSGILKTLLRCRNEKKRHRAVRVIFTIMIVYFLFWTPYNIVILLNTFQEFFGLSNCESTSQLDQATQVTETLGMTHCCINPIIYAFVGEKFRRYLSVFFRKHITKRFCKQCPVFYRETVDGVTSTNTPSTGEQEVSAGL",
  "experiment": "MCP-1 Receptor Binding Assay in THP-1 Cells",
  "settings": "0.5 nM 125I labeled MCP-1, 2 hours at 30° C., less polar isomer tested where stated, read-out: Inhibition of MCP-1 Binding IC50, CCR2 Binding",
  "method": "MCP-1 Receptor Binding Assay in THP-1 Cells\nHuman monocytic cell line THP-1 cells were obtained from American Type Culture Collection (Manassas, Va., USA). The THP-1 cells were grown in RPMI-1640 (RPMI: Roswell Park Memorial Institute Medium-cell culture growth media) supplemented with 10% fetal bovine serum in a humidified 5% CO2 atmosphere at 37° C. The cell density was maintained […].\nTHP-1 (cells were incubated with 0.5 nM ^125I labeled MCP-1 (Perkin-Elmer Life Sciences, Inc. Boston, Mass.) in the presence of varying concentrations of either unlabeled MCP-1 (R & D Systems, Minneapolis, Minn.) or test compound for 2 hours at 30° C. in a 96 well plate. Cells were then harvested onto a filter plate, dried, and 20 μL of Microscint 20 was added to each well. Plates were counted in a TopCount NXT, Microplate Scintillation & Luminescence Counter (Perkin-Elmer Life Sciences, Inc. Boston, Mass.). Blank values (buffer only) were subtracted from all values and drug treated values were compared to vehicle treated values. 1 μM cold MCP-1 was used for nonspecific binding.\nWhere an IC50 value was not obtained for a particular compound, the percent inhibition is provided at a test concentration of 25 μM.",
  "note": "Structures can show the parent of a compound that is named as a salt.",
  "data": [
    {"smiles": "CC(C)(C)NC(=O)n1nc(NCC(=O)NC2CN(C3CCC(C#N)CC3)C2)c2cc(C(F)(F)F)ccc21", "note": "(stereo not drawn) [Example 86, 3-({[1-(4-Cyano-cyclohexyl)-azetidin-3-ylcarbamoyl]-methyl}-amino)-5-trifluoromethyl-indazole-1-carboxylic acid tert-butylamide]", "values": [
      {"measurement": "IC50", "value": 0.75, "unit": "µM"}
    ]},
    {"smiles": "CCOc1ccc(C2(O)CCC(N3CC(NC(=O)CNc4nn(C(=O)NC(C)(C)C)c5ccc(C(F)(F)F)cc45)C3)CC2)cn1", "note": "(stereo not drawn) [Example 82, 3-[({1-[4-(6-Ethoxy-pyridin-3-yl)-4-hydroxy-cyclohexyl]-azetidin-3-ylcarbamoyl}-methyl)-amino]-5-trifluoromethyl-indazole-1-carboxylic acid tert-butylamide]", "values": [
      {"measurement": "IC50", "value": 0.034, "unit": "µM"}
    ]},
    {"smiles": "N#CC1CCC(N2CC(NC(=O)CNc3noc4ccc(C(F)(F)F)cc34)C2)CC1", "note": "(stereo not drawn) [Example 13, N-[1-(4-Cyano-cyclohexyl)-azetidin-3-yl]-2-(5-trifluoromethyl-benzo[d]isoxazol-3-ylamino)-acetamide]", "values": [
      {"measurement": "IC50", "value": 0.45, "unit": "µM"}
    ]},
    {"smiles": "Cc1cnc(C2(O)CCC(N3CC(NC(=O)CNc4nn(CCO)c5ccc(C(F)(F)F)cc45)C3)CC2)s1", "note": "(stereo not drawn) [Example 77, 2-[1-(2-Hydroxy-ethyl)-5-trifluoromethyl-1H-indazol-3-ylamino]-N-{1-[4-hydroxy-4-(5-methyl-thiazol-2-yl)-cyclohexyl]-azetidin-3-yl}-acetamide]", "values": [
      {"measurement": "IC50", "value": 0.031, "unit": "µM"}
    ]},
    {"smiles": "N#CC1CCC(N2CC(NC(=O)CNc3n[nH]c4ccc(C(F)(F)F)cc34)C2)CC1", "note": "(stereo not drawn) [Example 48, N-[1-(4-Cyano-cyclohexyl)-azetidin-3-yl]-2-(5-trifluoromethyl-1H-indazol-3-ylamino)-acetamide]", "values": [
      {"measurement": "IC50", "value": 0.43, "unit": "µM"}
    ]},
    {"smiles": "Cc1ccc(C2(O)CCC(N3CC(NC(=O)CNc4nn(C)c5ccc(C(O)C(F)(F)F)cc45)C3)CC2)cn1", "note": "(stereo not drawn) [Example 63, N-{1-[4-Hydroxy-4-(6-methyl-pyridin-3-yl)-cyclohexyl]-azetidin-3-yl}-2-[1-methyl-5-(2,2,2-trifluoro-1-hydroxy-ethyl)-1H-indazol-3-ylamino]-acetamide]", "values": [
      {"measurement": "IC50", "value": 3.4, "unit": "µM"}
    ]},
    {"smiles": "O=C(CNc1noc2ccc(C(F)(F)F)cc12)NC1CN(C2CCC(O)CC2)C1", "note": "(stereo not drawn) [Example 9, N-[1-(4-Hydroxy-cyclohexyl)-azetidin-3-yl]-2-(5-trifluoromethyl-benzo[d]isoxazol-3-ylamino)-acetamide]", "values": [
      {"measurement": "IC50", "value": 0.77, "unit": "µM"}
    ]},
    {"smiles": "COc1ccc(C2CCC(N3CC(NC(=O)CNc4nn(C(=O)NC(C)C)c5ccc(C(F)(F)F)cc45)C3)CC2)cn1", "note": "(stereo not drawn) [Example 91, 3-[({1-[4-(6-Methoxy-pyridin-3-yl)-cyclohexyl]-azetidin-3-ylcarbamoyl}-methyl)-amino]-5-trifluoromethyl-indazole-1-carboxylic acid isopropylamide]", "values": [
      {"measurement": "IC50", "value": 0.014, "unit": "µM"}
    ]},
    {"smiles": "NC1CCC(N2CC(NC(=O)CNc3noc4ccc(C(F)(F)F)cc34)C2)CC1", "note": "(stereo not drawn) [Example 11, N-[1-(4-Amino-cyclohexyl)-azetidin-3-yl]-2-(5-trifluoromethyl-benzo[d]isoxazol-3-ylamino)-acetamide TFA salt]", "values": [
      {"measurement": "IC50", "value": 2.9, "unit": "µM"}
    ]},
    {"smiles": "CCn1nc(NCC(=O)NC2CN(C3CCC(O)(c4cncs4)CC3)C2)c2cc(C(F)(F)F)ccc21", "note": "(stereo not drawn) [Example 67, 2-(1-Ethyl-5-trifluoromethyl-1H-indazol-3-ylamino)-N-[1-(4-hydroxy-4-thiazol-5-yl-cyclohexyl)-azetidin-3-yl]-acetamide]", "values": [
      {"measurement": "IC50", "value": 0.0084, "unit": "µM"}
    ]},
    {"smiles": "O=C(CNc1n[nH]c2ccc(C(F)(F)F)cc12)NC1CN(C2CCC(n3ccccc3=O)CC2)C1", "note": "(stereo not drawn) [Example 53, N-{1-[4-(2-Oxo-2H-pyridin-1-yl)-cyclohexyl]-azetidin-3-yl}-2-(5-trifluoromethyl-1H-indazol-3-ylamino)-acetamide]", "values": [
      {"measurement": "IC50", "value": 0.063, "unit": "µM"}
    ]},
    {"smiles": "Cc1ncc(C2(O)CCC(N3CC(NC(=O)CNc4nn(C)c5ccc(C(F)(F)F)cc45)C3)CC2)s1", "note": "(stereo not drawn) [Example 28, N-{-[4-Hydroxy-4-(2-methyl-thiazol-5-yl)-cyclohexyl]-azetidin-3-yl}-2-(1-methyl-5-trifluoromethyl-1H-indazol-3-ylamino)-acetamide]", "values": [
      {"measurement": "IC50", "value": 0.019, "unit": "µM"}
    ]},
    {"smiles": "O=C(CNc1nn(CCO)c2ccc(C(F)(F)F)cc12)NC1CN(C2CCC(O)(c3cncs3)CC2)C1", "note": "(stereo not drawn) [Example 76]", "values": [
      {"measurement": "IC50", "value": 0.029, "unit": "µM"}
    ]},
    {"smiles": "Cn1nc(NCC(=O)NC2CN(C3CCC(O)(c4cncs4)CC3)C2)c2cc(C(F)C(F)(F)F)ccc21", "note": "(stereo not drawn) [Example 65, N-[1-(4-Hydroxy-4-thiazol-5-yl-cyclohexyl)-azetidin-3-yl]-2-[1-methyl-5-(1,2,2,2-tetrafluoro-ethyl)-1H-indazol-3-ylamino]-acetamide]", "values": [
      {"measurement": "IC50", "value": 0.1, "unit": "µM"}
    ]},
    {"smiles": "CCc1ncc(C2(O)CCC(N3CC(NC(=O)CNc4nn(CC(F)(F)F)c5ccc(C(F)(F)F)cc45)C3)CC2)s1", "note": "(stereo not drawn) [Example 73, N-{1-[4-(2-Ethyl-thiazol-5-yl)-4-hydroxy-cyclohexyl]-azetidin-3-yl}-2-[1-(2,2,2-trifluoro-ethyl)-5-trifluoromethyl-1H-indazol-3-ylamino]-acetamide]", "values": [
      {"measurement": "IC50", "value": 0.16, "unit": "µM"}
    ]},
    {"smiles": "Cn1nc(NCC(=O)NC2CN(C3CCC(O)(c4nccs4)CC3)C2)c2cc(C(F)C(F)(F)F)ccc21", "note": "(stereo not drawn) [Example 66, N-[1-(4-Hydroxy-4-thiazol-2-yl-cyclohexyl)-azetidin-3-yl]-2-[1-methyl-5-(1,2,2,2-tetrafluoro-ethyl)-1H-indazol-3-ylamino]-acetamide]", "values": [
      {"measurement": "IC50", "value": 0.037, "unit": "µM"}
    ]},
    {"smiles": "CCOC(=O)C1CCC(N2CC(NC(=O)CNc3n[nH]c4ccc(C(F)(F)F)cc34)C2)CC1", "note": "(stereo not drawn) [Example 50, 4-{3-[2-(5-Trifluoromethyl-1H-indazol-3-ylamino)-acetylamino]-azetidin-1-yl}-cyclohexane carboxylic acid ethyl ester]", "values": [
      {"measurement": "IC50", "value": 0.027, "unit": "µM"}
    ]},
    {"smiles": "CCOC(=O)C1CCC(N2CC(NC(=O)CNc3nn(C)c4ccc(C(O)C(F)(F)F)cc34)C2)CC1", "note": "(stereo not drawn) [Example 60, 4-(3-{2-[1-Methyl-5-(2,2,2-trifluoro-1-hydroxy-ethyl)-1H-indazol-3-ylamino]-acetylamino}-azetidin-1-yl)-cyclohexanecarboxylic acid ethyl ester]", "values": [
      {"measurement": "IC50", "value": 2.09, "unit": "µM"}
    ]},
    {"smiles": "Cc1ccc(C2(O)CCC(N3CC(NC(=O)CNc4nn(C)c5ccc(C(F)(F)F)cc45)C3)CC2)cn1", "note": "(stereo not drawn) [Example 30, N-{1-[4-Hydroxy-4-(6-methyl-pyridin-3-yl)-cyclohexyl]-azetidin-3-yl}-2-(1-methyl-5-trifluoromethyl-1H-indazol-3-ylamino)-acetamide]", "values": [
      {"measurement": "IC50", "value": 0.0075, "unit": "µM"}
    ]},
    {"smiles": "CC(C)C1CCC(N2CC(NC(=O)CNc3noc4ccc(C(F)(F)F)cc34)C2)CC1", "note": "(stereo not drawn) [Example 7, N-[1-(4-Isopropyl-cyclohexyl)-azetidin-3-yl]-2-(5-trifluoromethyl-benzo[d]isoxazol-3-ylamino)-acetamide]", "values": [
      {"measurement": "IC50", "value": 0.17, "unit": "µM"}
    ]},
    {"smiles": "CCc1ncc(C2(O)CCC(N3CC(NC(=O)CNc4nn(C)c5ccc(C(F)(F)F)cc45)C3)CC2)s1", "note": "(stereo not drawn) [Example 23, N-{1-[4-(2-Ethyl-thiazol-5-yl)-4-hydroxy-cyclohexyl]-azetidin-3-yl}-2-(1-methyl-5-trifluoromethyl-1H-indazol-3-ylamino)-acetamide]", "values": [
      {"measurement": "IC50", "value": 0.18, "unit": "µM"}
    ]},
    {"smiles": "CCn1nc(NCC(=O)NC2CN(C3CCC(O)(c4cnc(C)s4)CC3)C2)c2cc(C(F)(F)F)ccc21", "note": "(stereo not drawn) [Example 69, 2-(1-Ethyl-5-trifluoromethyl-1H-indazol-3-ylamino)-N-{1-[4-hydroxy-4-(2-methyl-thiazol-5-yl)-cyclohexyl]-azetidin-3-yl}-acetamide]", "values": [
      {"measurement": "IC50", "value": 0.0086, "unit": "µM"}
    ]},
    {"smiles": "Cc1ccc(C2(O)CCC(N3CC(NC(=O)CNc4n[nH]c5ccc(C(F)(F)F)cc45)C3)CC2)cn1", "note": "(stereo not drawn) [Example 43, N-{1-[4-Hydroxy-4-(6-methyl-pyridin-3-yl)-cyclohexyl]-azetidin-3-yl}-2-(5-trifluoromethyl-1H-indazol-3-ylamino)-acetamide]", "values": [
      {"measurement": "IC50", "value": 0.0058, "unit": "µM"}
    ]},
    {"smiles": "NC(=O)Cc1ccc(C2CCC(N3CC(NC(=O)CNc4n[nH]c5ccc(C(F)(F)F)cc45)C3)CC2)cc1", "note": "(stereo not drawn) [Example 47, 2-[4-(4-{3-[2-(5-Trifluoromethyl-1H-indazol-3-ylamino)-acetylamino]-azetidin-1-yl}-cyclohexyl)-phenyl]-acetamide]", "values": [
      {"measurement": "IC50", "value": 0.012, "unit": "µM"}
    ]},
    {"smiles": "Cn1nc(NCC(=O)NC2CN(C3CCC(O)(c4nccs4)CC3)C2)c2cc(OC(F)(F)F)ccc21", "note": "(stereo not drawn) [Example 54, N-[1-(4-Hydroxy-4-thiazol-2-yl-cyclohexyl)-azetidin-3-yl]-2-(1-methyl-5-trifluoromethoxy-1H-indazol-3-ylamino)-acetamide]", "values": [
      {"measurement": "IC50", "value": 0.035, "unit": "µM"}
    ]},
    {"smiles": "Cn1nc(NCC(=O)NC2CN(C3CCC(CO)CC3)C2)c2cc(C(F)(F)F)ccc21", "note": "(stereo not drawn) [Example 33, N-[1-(4-Hydroxymethyl-cyclohexyl)-azetidin-3-yl]-2-(1-methyl-5-trifluoromethyl-1H-indazol-3-ylamino)-acetamide]", "values": [
      {"measurement": "IC50", "value": 0.044, "unit": "µM"}
    ]},
    {"smiles": "Cn1nc(NCC(=O)NC2CN(C3CCC(O)(c4cncs4)CC3)C2)c2cc(OC(F)(F)F)ccc21", "note": "(stereo not drawn) [Example 55, N-[1-(4-Hydroxy-4-thiazol-5-yl-cyclohexyl)-azetidin-3-yl]-2-(1-methyl-5-trifluoromethoxy-1H-indazol-3-ylamino)-acetamide]", "values": [
      {"measurement": "IC50", "value": 0.042, "unit": "µM"}
    ]}
  ]
}
